Test system: Fab S8-gp120 III-B binding
Assay: Peptide inhibition of gp120-Fab S8 binding (ELISA)
Design: species or system HIV-1
Experimental: Peptides from selected phage clones were synthesised by Isogen (Maarssen, The Netherlands). For binding competition experiments, purified S8 Fab (1 μg/ml) was incubated (4° C., 4 h) with several dilutions of the corresponding peptide before addition to gp120III-B (2 μg/ml)-coated microtiter wells.

[1] = peptide 50 μg/ml (124R1: a similar concentration), Fab S8 1 μg/ml

Sequence	inhibition of Fab S8-gp120 binding [1] [%]	inhibition of Fab S8-gp120 binding (peptide concentration not given) [%]
GIQLANPPRLYG [Fab 124R9]	50	–
FLQPPDFSHLPP [Fab 124R1]	15	–
LLADTTHHRPWT [Fab 124R4]	50	–
QEVGKAMYAPPI [ENV-9, peptide corresponding to gp120 amino acid residues 428-439]	–	50

Reference: patent US20110059015A1, “VACCINE” (priority 2002, published 2011)
